Measurements from ChEMBL document CHEMBL1140672, “Design, synthesis, and evaluation of isoindolinone-hydroxamic acid derivatives as histone deacetylase (HDAC) inhibitors” (Bioorg Med Chem Lett, 2007).
The source made the active and inactive calls. The calls are words filed in the database; no cut-off is given here.

Experiments:
[1] = molecular target: T1, Protein deacetylase HDAC6 (Homo sapiens, UniProt Q9UBN7); experiment: Inhibition of human HDAC6
T1 sequence (Q9UBN7 whole entry): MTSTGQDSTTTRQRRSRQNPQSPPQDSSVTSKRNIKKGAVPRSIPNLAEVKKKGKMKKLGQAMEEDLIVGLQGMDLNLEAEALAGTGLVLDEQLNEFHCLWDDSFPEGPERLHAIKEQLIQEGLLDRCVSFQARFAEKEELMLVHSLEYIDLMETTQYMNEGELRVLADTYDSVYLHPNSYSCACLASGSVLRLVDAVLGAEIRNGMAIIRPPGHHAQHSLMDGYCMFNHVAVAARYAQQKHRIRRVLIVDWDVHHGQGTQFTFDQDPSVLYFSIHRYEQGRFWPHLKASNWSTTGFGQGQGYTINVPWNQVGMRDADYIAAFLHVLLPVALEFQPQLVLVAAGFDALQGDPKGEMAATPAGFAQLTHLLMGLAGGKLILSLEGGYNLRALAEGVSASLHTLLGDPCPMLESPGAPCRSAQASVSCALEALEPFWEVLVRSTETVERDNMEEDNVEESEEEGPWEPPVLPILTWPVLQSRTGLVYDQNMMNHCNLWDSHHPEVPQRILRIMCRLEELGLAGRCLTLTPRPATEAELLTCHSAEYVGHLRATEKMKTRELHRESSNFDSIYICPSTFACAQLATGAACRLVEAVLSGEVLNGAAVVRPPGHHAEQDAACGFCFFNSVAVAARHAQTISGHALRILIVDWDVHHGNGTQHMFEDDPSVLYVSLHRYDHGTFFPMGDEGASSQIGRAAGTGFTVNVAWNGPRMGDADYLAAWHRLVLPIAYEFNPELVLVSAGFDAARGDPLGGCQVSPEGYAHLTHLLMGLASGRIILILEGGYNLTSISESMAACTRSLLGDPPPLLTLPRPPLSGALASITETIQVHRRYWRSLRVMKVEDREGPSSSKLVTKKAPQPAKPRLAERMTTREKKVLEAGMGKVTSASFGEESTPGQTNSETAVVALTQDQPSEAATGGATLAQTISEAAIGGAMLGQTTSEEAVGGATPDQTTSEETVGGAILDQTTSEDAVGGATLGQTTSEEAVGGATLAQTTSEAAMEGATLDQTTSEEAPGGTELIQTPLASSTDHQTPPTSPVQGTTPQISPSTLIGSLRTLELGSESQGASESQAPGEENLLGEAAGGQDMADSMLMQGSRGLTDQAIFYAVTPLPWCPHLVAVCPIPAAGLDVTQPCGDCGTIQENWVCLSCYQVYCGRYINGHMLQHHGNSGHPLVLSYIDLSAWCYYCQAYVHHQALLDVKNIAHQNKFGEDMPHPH

Histone deacetylase 1 = Histone deacetylase 1 (Homo sapiens, UniProt Q13547); experiment: Inhibition of human HDAC1
Sequence of Histone deacetylase 1 (Q13547 whole entry): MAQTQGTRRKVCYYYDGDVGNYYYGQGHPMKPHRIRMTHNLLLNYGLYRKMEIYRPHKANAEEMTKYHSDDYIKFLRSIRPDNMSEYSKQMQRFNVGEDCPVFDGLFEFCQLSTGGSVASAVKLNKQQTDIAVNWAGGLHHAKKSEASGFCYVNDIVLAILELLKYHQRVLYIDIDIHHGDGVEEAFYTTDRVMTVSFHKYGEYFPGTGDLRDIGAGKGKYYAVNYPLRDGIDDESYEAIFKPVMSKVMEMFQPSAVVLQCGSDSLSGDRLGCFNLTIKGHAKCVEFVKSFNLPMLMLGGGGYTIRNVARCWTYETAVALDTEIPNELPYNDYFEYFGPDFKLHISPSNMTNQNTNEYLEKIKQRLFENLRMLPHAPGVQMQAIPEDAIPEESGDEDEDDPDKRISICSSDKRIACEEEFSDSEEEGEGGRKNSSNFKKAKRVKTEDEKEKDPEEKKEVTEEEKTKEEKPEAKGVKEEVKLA

PANC-1 [2] = experiment: Antiproliferative activity against human PANC1 cells; type: functional, cell-based
Histone deacetylase 4 = Histone deacetylase 4 (Homo sapiens, UniProt P56524); experiment: Inhibition of human HDAC4
Sequence of Histone deacetylase 4 (P56524 whole entry): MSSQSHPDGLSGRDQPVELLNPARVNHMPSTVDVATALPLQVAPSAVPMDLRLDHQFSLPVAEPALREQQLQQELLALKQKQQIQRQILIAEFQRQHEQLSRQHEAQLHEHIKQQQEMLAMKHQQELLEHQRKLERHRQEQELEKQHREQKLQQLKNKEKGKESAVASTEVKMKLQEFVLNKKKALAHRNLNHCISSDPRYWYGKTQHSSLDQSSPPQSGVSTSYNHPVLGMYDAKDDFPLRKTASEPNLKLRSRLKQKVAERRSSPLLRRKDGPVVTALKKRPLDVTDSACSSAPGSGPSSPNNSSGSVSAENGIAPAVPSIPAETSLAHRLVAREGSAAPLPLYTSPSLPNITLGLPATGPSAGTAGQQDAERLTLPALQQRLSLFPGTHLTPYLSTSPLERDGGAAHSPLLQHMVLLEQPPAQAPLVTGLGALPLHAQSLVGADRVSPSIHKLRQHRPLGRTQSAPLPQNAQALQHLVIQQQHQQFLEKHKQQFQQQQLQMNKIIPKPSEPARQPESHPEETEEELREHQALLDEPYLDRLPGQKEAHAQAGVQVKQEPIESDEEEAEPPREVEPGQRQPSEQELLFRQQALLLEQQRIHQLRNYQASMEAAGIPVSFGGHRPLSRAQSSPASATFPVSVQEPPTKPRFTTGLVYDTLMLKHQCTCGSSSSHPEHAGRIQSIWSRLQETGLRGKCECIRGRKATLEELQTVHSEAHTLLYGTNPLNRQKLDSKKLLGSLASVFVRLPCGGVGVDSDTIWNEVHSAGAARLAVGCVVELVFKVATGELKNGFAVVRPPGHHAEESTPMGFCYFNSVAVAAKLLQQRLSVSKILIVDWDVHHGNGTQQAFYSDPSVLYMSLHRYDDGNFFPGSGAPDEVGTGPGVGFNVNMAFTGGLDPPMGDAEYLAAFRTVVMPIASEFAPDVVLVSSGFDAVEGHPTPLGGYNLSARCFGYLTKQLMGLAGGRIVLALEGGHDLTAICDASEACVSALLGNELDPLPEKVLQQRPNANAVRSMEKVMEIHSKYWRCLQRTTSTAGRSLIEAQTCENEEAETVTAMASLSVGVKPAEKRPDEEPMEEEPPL

PT-45 = experiment: Antiproliferative activity against human drug-resistant PT45 cells; type: functional, cell-based
PANC-1 [3] = experiment: Increase in p21WAF1/CIP1 gene expression in PANC1 cells 1 uM after 48 hrs relative to control; type: functional, cell-based; settings: Homo sapiens
PANC-1 [4] = experiment: Increase in p27kip1 gene expression in PANC1 cells after 48 hrs relative to control; type: functional, cell-based; settings: Homo sapiens
PANC-1 [5] = experiment: Increase in p21WAF1/CIP1 gene expression in PANC1 cells at 0.1 uM after 48 hrs relative to control; type: functional, cell-based; settings: Homo sapiens
PANC-1 [6] = experiment: Increase in p27kip1 gene expression in PANC1 cells after 24 hrs relative to control; type: functional, cell-based; settings: Homo sapiens
PANC-1 [7] = experiment: Increase in p21WAF1/CIP1 gene expression in PANC1 cells after 24 hrs relative to control; type: functional, cell-based; settings: Homo sapiens

SMILES	IC50 [1]	IC50 (Histone deacetylase 1)	IC50 (PANC-1 [2])	IC50 (Histone deacetylase 4)	IC50 (PT-45)	Activity (PANC-1 [3])	Activity (PANC-1 [4])	Activity (PANC-1 [5])	Activity (PANC-1 [6])	Activity (PANC-1 [7])
O=C(/C=C/c1ccc2c(c1)C(=O)N(Cc1ccc(-c3ccccc3)cc1)C2)NO	750 nM	220 nM	150 nM	98 nM	300 nM	–	–	–	–	–
CC(C)(C)c1ccc(CN2Cc3ccc(/C=C/C(=O)NO)cc3C2=O)cc1	990 nM	230 nM	–	180 nM	–	–	–	–	–	–
O=C(/C=C/c1ccc2c(c1)C(=O)N(Cc1ccc(-c3cccnc3)cc1)C2)NO	280 nM	92 nM	35 nM	56 nM	200 nM	Active	inactive	Active	inactive	–
O=C(/C=C/c1ccc2c(c1)C(=O)N(Cc1ccccc1)C2)NO	230 nM	250 nM	–	220 nM	–	–	–	–	–	–
O=C(CCCCCCC(=O)Nc1ccccc1)NO	–	–	–	–	–	–	inactive	Active	inactive	Active
O=C(/C=C/c1ccc2c(c1)C(=O)N(Cc1ccc(-c3ccncc3)cc1)C2)NO	15000 nM	3300 nM	–	2100 nM	–	–	–	–	–	–
